Source: publication PMC12430079, “Comprehensive UPLC-MS/MS Method for Quantifying Four Key Intestinal Permeability Markers in Caco-2 Models” (Molecules, 2025)
Read-outs that look alike come from different tables or passages of the source.

How the values were obtained:
physchem = conditions: Recovery under stability condition
Method: These tests included assessing short-term stability at room temperature, long-term stability during storage at −20 °C for up to 45 days, and stability across three freeze-thaw cycles. Additionally, the stability of the analytes was tested in the media used for intestinal permeability assays, specifically HBSS with MES and HEPES buffers at pH 6.0 and 7.4.

Caco-2 cells = conditions: 4 h, 37 °C
in vitro = conditions: human, Caco-2
Caco-2 cell monolayer = conditions: Caco-2 monolayer, apical pH 6.0 / basolateral pH 7.4, 4 h, without verapamil as inhibitor

| recovery (physchem) | recovery at 36 d (physchem) | efflux ratio (in vitro) | Apparent permeability (Papp) A→B (Caco-2 cell monolayer) | Apparent permeability (Papp) B→A (Caco-2 cell monolayer) | SMILES | Cytotoxicity (LDH release) (Caco-2 cells; 50 µM) | Cytotoxicity (LDH release) (Caco-2 cells; 5 µM) |
| --- | --- | --- | --- | --- | --- | --- | --- |
| 87.5 ± 6.3% | 86.2 ± 1.2% | – | – | – | C=C[C@H]1C[N@@]2CC[C@H]1C[C@@H]2[C@@H](O)c1ccnc2ccc(OC)cc12 [Quinidine, quinidine] | – | – |
| – | – | – | – | – | CC(C)NCC(O)COc1ccc(CC(N)=O)cc1 (stereo not drawn) [Atenolol, atenolol] | did not induce cytotoxicity | – |
| 86.5 ± 21% | 87.7 ± 5.12% | ~1 | high | high | CC(C)NCC(O)COc1cccc2ccccc12 (stereo not drawn) [Propranolol, propranolol] | – | did not induce cytotoxicity |
